Experimental data: patent US8828438B2, “Pharmaceutical compositions of cholesteryl ester transfer protein inhibitors and HMG-CoA reductase” (Bend Research, Inc., priority 2005, dated 2014)

Experiment: aqueous solubility
Type: physicochemical
Conditions: aqueous environment, water; aqueous environments; about 22° C. unless otherwise specified
Text: The CETP inhibitor may be any compound capable of inhibiting the cholesteryl ester transfer protein. Solid amorphous dispersions are particularly useful for CETP inhibitors that have sufficiently low aqueous solubility, low bioavailability or slow rate of absorption such that it is desirable to increase their concentration in an aqueous environment of use. The CETP inhibitor is typically “sparingly water-soluble,” which means that the CETP inhibitor has a minimum aqueous solubility of less than about 1 to 2 mg/mL at any physiologically relevant pH (e.g., pH 1-8) and at about 22° C. Many CETP inhibitors are “substantially water-insoluble,” which means that the CETP inhibitor has a minimum aqueous solubility of less than about 0.01 mg/mL (or 10 μg/ml) at any physiologically relevant pH (e.g., pH 1-8) and at about 22° C. (Unless otherwise specified, reference to aqueous solubility herein and in the claims is determined at about 22° C.) Compositions of the present invention find greater utility as the solubility of the CETP inhibitors decreases, and thus are preferred for CETP inhibitors with solubilities less than about 10 μg/mL, more preferred for CETP inhibitors with solubilities less than about 2 μg/mL, and even more preferred for CETP inhibitors with solubilities less than about 1 μg/mL. […]

solubility: < 0.04 µg/mL
Compound: CCOC(=O)N1c2ccc(C(F)(F)F)cc2[C@@H](N(Cc2cc(C(F)(F)F)cc(C(F)(F)F)c2)C(=O)OC)C[C@H]1CC [torcetrapib, [2R,4S]-4-[(3,5-bis-trifluoromethyl-benzyl)-methoxycarbonyl-amino]-2-ethyl-6-trifluoromethyl-3,4-dihydro-2H-quinoline-1-carboxylic acid ethyl ester]
